This passage reports EC50 and IC50 results from patent publication US10030016B2 (Sunesis Pharmaceuticals, Inc., priority 2009, dated 2018).

For experiment [1], the system named is phospho-akt (Thr308) in PC-3 cells. In words: Inhibition of phospho-akt (Thr308) in PC-3 cells, MSD phospho-akt 308 ELISA kit. In kind it is cell-based. Particulars: Homo sapiens, 2 hours, no serum, read-out: EC50. In a few lines:
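PC-3 cells were seeded overnight in growth medium with 10% FBS, then exposed to compound serially diluted threefold in serum-free medium for 2 hours. Lysates were captured overnight at 4 degrees on MSD plates and phospho-Akt Thr308 was detected electrochemiluminescently, against DMSO high and 5 μM wortmannin low controls.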

For experiment [2], the target named is PDK1 (Homo sapiens (Human), UniProt O15530). In words: PDK1 kinase assay (coupled PDK1/AKT/FAM-crosstide assay, IMAP fluorescence polarization). In kind it is biochemical. In a few lines:
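PDK1 activity is measured indirectly through activation of a PIFtide-fused AKT2 construct that phosphorylates FAM-crosstide (100 nM). The reaction uses 0.75 nM PDK1, 40 μM ATP, 30 min, 25° C, with IMAP polarization detection.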

Where [3] appears, read: inhibition of P308 Akt in PC-3 cells using MSD.
The mark [4] stands for this setting: inhibition of P308 Akt in PC-3 cells, MSD.
Setting [5] is: inhibition of phospo-PDK1 in vitro.

Like-named read-outs stand apart in the source and are kept apart here.

Sequence of PDK1 (O15530 51-359): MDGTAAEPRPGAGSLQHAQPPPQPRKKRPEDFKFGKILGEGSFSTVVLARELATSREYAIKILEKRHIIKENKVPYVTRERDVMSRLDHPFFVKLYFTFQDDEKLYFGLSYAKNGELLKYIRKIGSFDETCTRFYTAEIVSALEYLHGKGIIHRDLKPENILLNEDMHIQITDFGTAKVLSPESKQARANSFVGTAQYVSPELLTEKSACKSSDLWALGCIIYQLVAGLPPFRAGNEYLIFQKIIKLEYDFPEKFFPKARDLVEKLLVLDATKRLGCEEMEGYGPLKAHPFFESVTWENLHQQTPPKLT

As for `C[C@H](NC(=O)c1cc(C#N)cnc1NCc1ccc(-c2cnc3[nH]nc(N)c3c2)cc1)c1ccc(F)cc1` [Example 122, (S)-2-(4-(3-amino-1H-pyrazolo[3,4-b]pyridin-5-yl)benzylamino)-5-cyano-N-(1-(4-fluorophenyl)ethyl) nicotinamide], the EC50 in experiment [1] (setting [3]) was under 1 µM. In experiment [2] (inhibition of PDK1 in vitro), the half-inhibitory concentration (IC50) was under 0.1 µM.

As for `Nc1ncnc2ccc(-c3ccc(CNc4ncc(Br)cc4C(=O)NCc4ccc(F)c(F)c4)s3)cc12` [Ex. 8.9, 2-({[5-(4-aminoquinazolin-6-yl)thiophen-2-yl]methyl}amino)-N-(3,4-difluorobenzyl)-5-bromopyridine-3-carboxamide], the EC50 in experiment [1] (setting [4]) is under 1 µM. For the same compound, the half-inhibitory concentration (IC50) in experiment [2] (setting [5]) was under 0.1 µM.

Take `O=C(Nc1ccc(F)cc1)c1cc(C(F)(F)F)cnc1NCc1ccc(-c2cnc3[nH]ncc3c2)cc1` [Example 156, 2-(4-(1H-pyrazolo[3,4-b]pyridin-5-yl)benzylamino)-N-(4-fluorophenyl)-5-(trifluoromethyl)nicotinamide]: in experiment [1] (setting [3]), the EC50 was under 1 µM. The IC50 in experiment [2] (inhibition of PDK1 in vitro) was under 0.1 µM.

Take `Cc1cc(N)ncc1-c1ccc(CNc2ncc(C#N)cc2C(=O)N[C@@H](C)c2ccc(F)cc2)cc1` [Example 121, (S)-2-(4-(6-amino-4-methylpyridin-3-yl)benzylamino)-5-cyano-N-(1-(4-fluorophenyl)ethyl) nicotinamide]: the EC50 in experiment [1] (setting [3]) was over 10 µM. Besides, the IC50 in experiment [2] (inhibition of PDK1 in vitro) was in the range of 0.1 to 1 µM.

Consider `Nc1ncnc2ccc(-c3ccc(CNc4nc(C(F)(F)F)ccc4C(=O)NCc4ccc(F)c(F)c4)s3)cc12` [Example 8.12.2, 2-({[5-(4-aminoquinazolin-6-yl)thiophen-2-yl]methyl}amino)-N-(3,4-difluorobenzyl)-6-(trifluoromethyl)pyridine-3-carboxamide], for which the EC50 in experiment [1] (setting [4]) fell in the range of 1 to 10 µM. This compound also returned a concentration for half-maximal inhibition (IC50) in experiment [2] (setting [5]) of under 0.1 µM.

Regarding `C[C@H](NC(=O)c1cc(C#N)cnc1NCc1ccc(-c2cnc(N)c(F)c2)cc1)c1ccc(F)cc1` [Example 110, (S)-2-(4-(6-amino-5-fluoropyridin-3-yl)benzylamino)-5-cyano-N-(1-(4-fluorophenyl)ethyl)nicotinamide], the concentration for a half-maximal effect (EC50) in experiment [1] (setting [3]) was under 1 µM. This compound also showed an IC50 in experiment [2] (inhibition of PDK1 in vitro) of under 0.1 µM.

On to `C[C@H](NC(=O)c1cc(C(F)(F)F)cnc1NCc1ccc(-c2cnc3[nH]nc(N)c3c2)cc1)c1ccc(Cl)cc1` [Example 277, 2-(4-(3-amino-1H-pyrazolo [3,4-b]pyridin-5-yl)benzylamino)-N-(1-(4-chlorophenyl)ethyl)-5-(trifluoromethyl) nicotinamide], for which, in experiment [1] (setting [3]), the 50% effective concentration (EC50) was under 1 µM. Besides, the IC50 in experiment [2] (inhibition of PDK1 in vitro) is under 0.1 µM.

In the case of `Nc1ncnc2ccc(-c3csc(CNc4ncccc4C(=O)NCc4ccc(F)c(F)c4)c3)cc12` [Ex. 6.14, 2-({[4-(4-aminoquinazolin-6-yl)thiophen-2-yl]methyl}amino)-N-(3,4-difluoro-benzyl) pyridine-3-carboxamide], the EC50 in experiment [1] (setting [4]) lay in the range of 1 to 10 µM. The IC50 in experiment [2] (setting [5]) was under 0.1 µM.

`C[C@H](NC(=O)c1cccnc1NCc1ccc(-c2ccc3ncnc(N4CC(O)C4)c3c2)s1)c1ccc(F)c(F)c1` [Example 4.34]: the concentration giving a half-maximal response (EC50) in experiment [1] (setting [4]) is 1 to 10 µM. For the same compound, the IC50 in experiment [2] (setting [5]) was under 0.1 µM.

As for `COc1cnc(NCc2ccc(-c3ccc4ncnc(N)c4c3)s2)c(C(=O)NCc2ccc(F)c(F)c2)c1` [Example 8.1.2, 2-({[5-(4-aminoquinazolin-6-yl)thiophen-2-yl]methyl}amino)-N-(3,4-difluorobenzyl)-5-methoxypyridine-3-carboxamide], the 50% effective concentration (EC50) in experiment [1] (setting [4]) is under 1 µM. In addition, the half-inhibitory concentration (IC50) in experiment [2] (setting [5]) is under 0.1 µM.

With `Cn1nc(Nc2ncccc2C(=O)NCc2ccc(F)c(F)c2)c2cc(-c3c[nH]c4ncccc34)ccc21` [Example 14.1, N-(3,4-difluorobenzyl)-2-(1-methyl-5-(1H-pyrrolo[2,3-b]pyridin-3-yl)-1H-indazol-3-ylamino)nicotinamide], the concentration for a half-maximal effect (EC50) in experiment [1] (setting [4]) was 1 to 10 µM. Also, the 50% inhibitory concentration (IC50) in experiment [2] (setting [5]) was under 0.1 µM.

Turning to `C[C@H](NC(=O)c1cc(C#N)cnc1NCc1ccc(-c2cnc(N)c(OC(F)F)c2)cc1)c1ccc(F)cc1` [Example 134, (S)-2-(4-(6-amino-5-(difluoromethoxy)pyridin-3-yl)benzylamino)-5-cyano-N-(1-(4-fluorophenyl)ethyl)nicotinamide], the EC50 in experiment [1] (setting [3]) was under 1 µM. In addition, the IC50 in experiment [2] (inhibition of PDK1 in vitro) is under 0.1 µM.

On to `COc1ccc([C@H](COc2ccc3[nH]c(=O)[nH]c3c2)Nc2ncccc2C(=O)N[C@@H](C)c2ccc(F)c(F)c2)cc1` [Example 16.8, N-((S)-1-(3,4-difluorophenyl)ethyl)-2-(((R)-1-(4-methoxyphenyl)-2-(2-oxo-2,3-dihydro-1H-benzo[d]imidazol-5-yloxy)ethyl)amino)nicotinamide], for which the EC50 in experiment [1] (PC-3, 2 h, inhibition of P308 Akt in PC-3 cells, MSD) was over 10 µM. This compound displayed a half-maximal inhibitory concentration (IC50) in experiment [2] (setting [5]) of 1 to 5 µM.

For the compound `C[C@H](NC(=O)c1cc(C#N)cnc1NCc1ccc(-c2cnc(N)c(O[C@@H]3CCNC3)n2)cc1)c1ccc(F)cc1` [Example 160, 2-{4-[5-Amino-6-((R)-pyrrolidin-3-yloxy)-pyrazin-2-yl]-benzylamino}-5-cyano-N-[(S)-1-(4-fluoro-phenyl)-ethyl]-nicotinamide], the 50% effective concentration (EC50) in experiment [1] (setting [3]) is under 1 µM. For the same compound, in experiment [2] (inhibition of PDK1 in vitro), the IC50 is under 0.1 µM.

In the case of `C[C@H](NC(=O)c1cc(C#N)cnc1NCc1ccc(-c2cnc3[nH]c(=O)[nH]c3c2)cc1F)c1ccc(F)cc1` [Example 126, (S)-5-cyano-2-(2-fluoro-4-(2-oxo-2,3-dihydro-1H-imidazo[4,5-b]pyridin-6-yl)benzyl-amino)-N-(1-(4-fluorophenyl)ethyl) nicotinamide], the half-maximal effective concentration (EC50) in experiment [1] (setting [3]) is under 1 µM. In experiment [2] (inhibition of PDK1 in vitro), this compound displayed an IC50 of under 0.1 µM.

As to `O=C1Nc2cc(/C=C/CNc3ncccc3C(=O)NCc3ccc(F)cc3)ccc2/C1=C/c1cnc[nH]1` [Example 15.21, 2-((E)-3-((Z)-3-((1H-imidazol-5-yl)methylene)-2-oxoindolin-6-yl)allylamino)-N-(4-fluorobenzyl)nicotinamide], the EC50 in experiment [1] (setting [4]) was under 1 µM. For the same compound, the IC50 in experiment [2] (setting [5]) was under 0.1 µM.

For `CNC(=O)c1cc(S(=O)(=O)NCc2ccccc2)cnc1NCc1ccc(-c2ccc3ncnc(N)c3c2)s1` [Example 8.6.15, 2-(((5-(4-aminoquinazolin-6-yl)thiophen-2-yl)methyl)amino)-5-(N-benzylsulfamoyl)-N-methylnicotinamide], in experiment [1] (setting [4]), the concentration for a half-maximal effect (EC50) was over 10 µM. The compound also returned an IC50 in experiment [2] (setting [5]) of under 0.1 µM.

Consider `CC(C)Oc1cc(CNc2ncccc2C(=O)NCc2ccc(F)c(F)c2)cc(-c2c[nH]c3ncc(-c4ccc[nH]4)cc23)c1` [Example 335, 2-(3-(5-(1H-pyrrol-2-yl)-1H-pyrrolo[2,3-b]pyridin-3-yl)-5-isopropoxybenzylamino)-N-(3,4-difluorobenzyl) nicotinamide], for which, in experiment [1] (setting [3]), the EC50 was over 10 µM. Also, in experiment [2] (inhibition of PDK1 in vitro), the half-maximal inhibitory concentration (IC50) was under 0.1 µM.

`C[C@H](NC(=O)c1cc(C#N)cnc1Nc1ccc(-c2cnc3[nH]nc(N)c3c2)cc1)c1ccc(F)cc1` [Example 424, (S)-2-(4-(3-amino-1H-pyrazolo[3,4-b]pyridin-5-yl)phenylamino)-5-cyano-N-(1-(4-fluorophenyl)ethyl)nicotinamide]: the EC50 in experiment [1] (setting [3]) was in the range of 1 to 10 µM. Also, the 50% inhibitory concentration (IC50) in experiment [2] (inhibition of PDK1 in vitro) is under 0.1 µM.

For the compound `C[C@H](NC(=O)c1cc(I)cnc1NCc1ccc(-c2ccc3ncnc(N)c3c2)s1)c1ccc(F)c(F)c1` [Ex. 7.21.1, 2-({[5-(4-aminoquinazolin-6-yl)thiophen-2-yl]methyl}amino)-N-[(1S)-1-(3,4-difluorophenyl)ethyl]-5-iodopyridine-3-carboxamide], in experiment [1] (setting [4]), the EC50 is under 1 µM. In experiment [2] (setting [5]), this compound came in with an IC50 of 0.1 to 1 µM.

As for `Cc1nc2cnc3ccc(-c4ccc(CNc5ncccc5C(=O)N[C@@H](C)c5ccc(F)cc5)s4)cc3c2n1C` [Example 2.19, (S)-2-(((5-(1,2-dimethyl-1H-imidazo[4,5-c]quinolin-8-yl)thiophen-2-yl)methyl)amino) N-(1-(4-fluorophenyl)ethyl) nicotinamide], in experiment [1] (setting [4]), the EC50 was under 1 µM. The compound also gave a concentration for half-maximal inhibition (IC50) in experiment [2] (setting [5]) of 0.1 to 1 µM.

`Nc1ncnc2ccc(-c3ncc(CNc4ncccc4C(=O)NCc4ccc(F)c(F)c4)s3)cc12` [Ex. 6.6, 2-({[2-(4-aminoquinazolin-6-yl)-1,3-thiazol-5-yl]methyl}amino)-N-(3,4-difluoro-benzyl) pyridine-3-carboxamide]: the EC50 in experiment [1] (setting [4]) is over 10 µM. In addition, the IC50 in experiment [2] (setting [5]) is under 0.1 µM.

As to `CC(=O)Nc1cnc(NCc2ccc(-c3ccc4ncnc(N)c4c3)s2)c(C(=O)NCc2ccc(F)c(F)c2)c1` [Ex. 8.5.1, 5-(acetylamino)-2-({[5-(4-aminoquinazolin-6-yl)thiophen-2-yl]methyl}amino)-N-(3,4-difluorobenzyl)pyridine-3-carboxamide], the EC50 in experiment [1] (setting [4]) was in the range of 1 to 10 µM. In experiment [2] (setting [5]), this compound registered a half-maximal inhibitory concentration (IC50) of under 0.1 µM.

`Cc1nc(/C=C2\C(=O)Nc3cc(/C=C/CNc4ncccc4C(=O)NCc4ccc(F)c(F)c4)ccc32)c[nH]1` [Example 15.8, N-(3,4-Difluoro-benzyl)-2-((E)-3-{3-[1-(2-methyl-1H-imidazol-4-yl)-meth-(Z)-ylidene]-2-oxo-2,3-dihydro-1H-indol-6-yl}-allylamino)-nicotinamide]: the concentration for a half-maximal effect (EC50) in experiment [1] (setting [4]) is under 1 µM. Besides, the concentration for half-maximal inhibition (IC50) in experiment [2] (setting [5]) was under 0.1 µM.

Consider `Nc1ncnc2ccc(-c3ccc(CNc4nc(Cl)cc5ncn(Cc6ccc(F)c(F)c6)c(=O)c45)s3)cc12` [Ex. 7.17, 5-({[5-(4-aminoquinazolin-6-yl)thiophen-2-yl]methyl}amino)-7-chloro-N-3-(3,4-difluorobenzyl)pyrido [4,3-d]pyrimidin-4(3H)-one], for which the EC50 in experiment [1] (setting [4]) was in the range of 1 to 10 µM. Also, the IC50 in experiment [2] (setting [5]) was under 0.1 µM.
